Results: patent publication US20220348878A1, “CELL PROLIFERATION INHIBITOR” (BOURBON CORPORATION, priority 2019, published 2022)

How the values were obtained:
Format in all cases: cell-based
Human fibroblast = test: Culture test with medium exchange every three days (Example 2), cell count; details: for Number of cells: Glutamic acid: 8 mM, average of three wells
Description: As the medium, the DMEM basal medium was used.
After cell culture, the cells were recovered using a 0.1% by weight trypsin/1 mM EDTA solution, and seeded on a 12-well plate (obtained from Corning Co., Ltd.), and cultured overnight at 37° C. in the presence of 5% CO2 using the above DMEM basal medium. […]
Note that the number of cells is an average of the numbers of cell counts in three wells, and the counts is measured by the following method.
(§1) After removing the culture supernatant of the cells by suction and washing the cells by using PBS, the cells were peeled off by using 0.1% trypsin/1 mM EDTA solution (FUJIFILM Wako Pure Chemical Corporation). The reaction of the releasing solution was stopped by adding the medium, and the cells were recovered. And then, the cell counts was conducted by using the Countess™ II Automated Cell Counter (Thermo Fisher Scientific).

[1] = tested on: Human mesenchymal stem cell; test: as above; details: for Number of cells: Glutamic acid: 8 mM, average of three wells
Description: (§2) Human mesenchymal stem cells (manufactured by Lonza, Catalog No. PT-5006) were cultured in a cell culture dish (100-mm culture dish, obtained from SANPLATEC CO., LTD.) coated with 10 μg/ml Fibronectin (Promocell) at 37° C. in the presence of 5% CO2, and used. As the medium, the DMEM basal medium was used.
(§3) After cell culture, the cells were recovered using a 0.1% by weight trypsin/1 mM EDTA solution, and seeded on a 12-well plate (obtained from Corning Co., Ltd.), and cultured overnight at 37° C. in the presence of 5% CO2 using the above DMEM basal medium.
(§4) The DMEM basal medium was replaced with the desired cell maintenance medium, and the cells were cultured (“Day 0 after culture”). No medium exchange was performed during the culture period.
The same culture test as in Example 1 was conducted except that the medium was exchanged every three days during the culture period.
Tables 1 to 2 indicate the number of cells for each culture day. […] Note that the number of cells is an average of the numbers of cell counts in three wells, and the counts is measured by the following method.
as §1

[2] = tested on: Human mesenchymal stem cell; test: as above; details: w/o Glc medium instead of w/Glc medium; Glutamic acid 8 mM; FIG. 3, Day 12
[3] = tested on: Human mesenchymal stem cells; test: Test for confirming cell proliferation inhibitory effect (Example 1), phase-contrast observation of cell state; details: Day 9, no medium exchange; for Cell state: number of dead cells and cell proliferation: 1 mM, 5 mM or 8 mM glutamic acid
Description: as §2, §3, §4
(§5) Further, the same culture test as described above was conducted except that 1 mM, 5 mM or 8 mM of glutamic acid was added to the basal medium for cell culture.

Human fibroblasts = test: as above; details: Day 9, no medium exchange; for Cell state: number of dead cells and cell proliferation: 1 mM, 5 mM or 8 mM glutamic acid
Description: Human fibroblasts (Catalog No. CC-2511) were cultured in a gelatin-coated cell culture dish (100-mm culture dish, obtained from SANPLATEC CO., LTD.) at 37° C. in the presence of 5% CO2, and used. As the medium, the DMEM basal medium was used.
as §3, §4, §5

[4] = glucose-free DMEM basal medium (w/o Glc)
[5] = xylose DMEM basal medium (w/Xy)

## N[C@@H](CCC(=O)O)C(=O)O [Glutamic acid, glutamic acid]
Human fibroblast; Medium: w/G1c, Day 0
  Number of cells: 0.07 ×10^5 cells/cm^2
Human fibroblast; Medium: w/G1c, Day 6
  Number of cells: 0.56 ×10^5 cells/cm^2
Human fibroblast; Medium: w/G1c, Day 12
  Number of cells: 1.46 ×10^5 cells/cm^2
Human fibroblast; Medium: w/G1c, Day 18
  Number of cells: 1.72 ×10^5 cells/cm^2
Human fibroblast; Medium: w/Xy, Day 0
  Number of cells: 0.07 ×10^5 cells/cm^2
Human fibroblast; Medium: w/Xy, Day 6
  Number of cells: 0.37 ×10^5 cells/cm^2
Human fibroblast; Medium: w/Xy, Day 12
  Number of cells: 1.13 ×10^5 cells/cm^2
Human fibroblast; Medium: w/Xy, Day 18
  Number of cells: 1.28 ×10^5 cells/cm^2
Human fibroblast; Medium: w/o G1c, Day 0
  Number of cells: 0.07 ×10^5 cells/cm^2
Human fibroblast; Medium: w/o G1c, Day 6
  Number of cells: 0.27 ×10^5 cells/cm^2
Human fibroblast; Medium: w/o G1c, Day 12
  Number of cells: 0.08 ×10^5 cells/cm^2
Human fibroblast; w/Glc medium, Glutamic acid 8 mM, from Table 1
  Cell proliferation inhibition compared with the control test with w/Glc medium: the cell proliferation was inhibited till 6 days after
Human fibroblast; w/Xy medium instead of w/Glc medium, Glutamic acid 8 mM, from Table 1
  Cell proliferation inhibitory effect: the cell proliferation inhibitory effect was remarkable, and it was possible to inhibit the cell proliferation for a longer period
Human fibroblast; w/o Glc medium instead of w/Glc medium, Glutamic acid 8 mM, from Table 1
  Number of cells and dead cells: the number of cells after 12 days was remarkably less, and the dead cells occurred
[1]; Medium: w/Glc, Day 0
  Number of cells: 0.356 ×10^4 cells/cm^2
[1]; Medium: w/Glc, Day 3
  Number of cells: 1.12 ×10^4 cells/cm^2
[1]; Medium: w/Glc, Day 6
  Number of cells: 2.96 ×10^4 cells/cm^2
[1]; Medium: w/Glc, Day 9
  Number of cells: 3.23 ×10^4 cells/cm^2
[1]; Medium: w/Glc, Day 12
  Number of cells: 3.75 ×10^4 cells/cm^2
[1]; Medium: w/Glc, Day 15
  Number of cells: 4.46 ×10^4 cells/cm^2
[1]; Medium: w/Glc, Day 18
  Number of cells: 5.37 ×10^4 cells/cm^2
[1]; Medium: w/Xy, Day 0
  Number of cells: 0.356 ×10^4 cells/cm^2
[1]; Medium: w/Xy, Day 3
  Number of cells: 0.855 ×10^4 cells/cm^2
[1]; Medium: w/Xy, Day 6
  Number of cells: 0.998 ×10^4 cells/cm^2
[1]; Medium: w/Xy, Day 9
  Number of cells: 1.65 ×10^4 cells/cm^2
[1]; Medium: w/Xy, Day 12
  Number of cells: 1.87 ×10^4 cells/cm^2
[1]; Medium: w/Xy, Day 15
  Number of cells: 2.77 ×10^4 cells/cm^2
[1]; Medium: w/Xy, Day 18
  Number of cells: 3.90 ×10^4 cells/cm^2
[1]; Medium: w/o Glc, Day 0
  Number of cells: 0.356 ×10^4 cells/cm^2
[1]; Medium: w/o Glc, Day 3
  Number of cells: 0.591 ×10^4 cells/cm^2
[1]; Medium: w/o Glc, Day 6
  Number of cells: 0.662 ×10^4 cells/cm^2
[1]; Medium: w/o Glc, Day 9
  Number of cells: 1.06 ×10^4 cells/cm^2
[1]; Medium: w/o Glc, Day 12
  Number of cells: 1.04 ×10^4 cells/cm^2
[1]; Medium: w/o Glc, Day 15
  Number of cells: 1.50 ×10^4 cells/cm^2
[1]; Medium: w/o Glc, Day 18
  Number of cells: 1.58 ×10^4 cells/cm^2
[1]; w/Glc medium, Glutamic acid 8 mM, from Table 2
  Cell proliferation inhibition compared with the control test with w/Glc medium: it was possible to inhibit the cell proliferation till 18 days after
[1]; w/Xy medium instead of w/Glc medium, Glutamic acid 8 mM, from Table 2
  Cell proliferation inhibitory effect: the cell proliferation inhibitory effect was remarkable
[2]
  Condition of cells (whitening around cells): the ratio of whitening around cells ware large, and the conditions of cells deteriorated
[3]; [4]
  Cell state: number of dead cells and cell proliferation: the number of dead cells decreased and cell proliferation was inhibited as the glutamic acid concentration increased
[3]; w/Xy, glutamic acid concentration 5 to 8 mM
  Dead cells observed: dead cells were hardly observed
[3]; [5]
  Cell state: number of dead cells and cell proliferation: the number of dead cells decreased and cell proliferation was inhibited as the glutamic acid concentration increased
Human fibroblasts; [4]
  Cell state: number of dead cells and cell proliferation: the number of dead cells decreased and cell proliferation was inhibited as the glutamic acid concentration increased
Human fibroblasts; w/Xy, glutamic acid concentration 1 to 8 mM
  Dead cells observed: dead cells were hardly observed
Human fibroblasts; [5]
  Cell state: number of dead cells and cell proliferation: the number of dead cells decreased and cell proliferation was inhibited as the glutamic acid concentration increased
